# Measurements as given in PubChem BioAssay AID2060507 (Molecular Pharmacology Branch, DTP, NCI, 2025).
# Test system: 519858-162-T-J1-PDC complex spheroid viability
# Assay: Anticancer human tumor 519858-162-T-J1-PDC patient-derived colon adenocarcinoma cell line growth inhibition [GQUAD]
# Settings: for IC50: curve of first compound; for viability, T/C: stronger effect = lower value
# Method in brief: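 Viability of tumor cells grown as complex spheroids with endothelial and stromal cells, exposed to drug combinations. Top concentration at or near clinical Cmax (else 10 microM), diluted in half-log increments.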
# [1] = second compound 0.0316 µM, first compound 0.0316 µM
# [2] = second compound 0.0316 µM, first compound 0.1 µM
# [3] = second compound 0.0316 µM, first compound 0.316 µM
# [4] = second compound 0.0316 µM, first compound 1 µM
# [5] = second compound 0.0316 µM, first compound 3.16 µM
# [6] = second compound 0.0316 µM, first compound 10 µM
# [7] = second compound 0.1 µM, first compound 0.0316 µM
# [8] = second compound 0.1 µM, first compound 0.1 µM
# [9] = second compound 0.1 µM, first compound 0.316 µM
# [10] = second compound 0.1 µM, first compound 1 µM
# [11] = second compound 0.1 µM, first compound 3.16 µM
# [12] = second compound 0.1 µM, first compound 10 µM
# [13] = second compound 0.316 µM, first compound 0.0316 µM
# [14] = second compound 0.316 µM, first compound 0.1 µM
# [15] = second compound 0.316 µM, first compound 0.316 µM
# [16] = second compound 0.316 µM, first compound 1 µM
# [17] = second compound 0.316 µM, first compound 3.16 µM
# [18] = second compound 0.316 µM, first compound 10 µM
# [19] = second compound 1 µM, first compound 0.0316 µM
# [20] = second compound 1 µM, first compound 0.1 µM
# [21] = second compound 1 µM, first compound 0.316 µM
# [22] = second compound 1 µM, first compound 1 µM
# [23] = second compound 1 µM, first compound 3.16 µM
# [24] = second compound 1 µM, first compound 10 µM
# [25] = second compound 3.16 µM, first compound 0.0316 µM
# [26] = second compound 3.16 µM, first compound 0.1 µM
# [27] = second compound 3.16 µM, first compound 0.316 µM
# [28] = second compound 3.16 µM, first compound 1 µM
# [29] = second compound 3.16 µM, first compound 3.16 µM
# [30] = second compound 3.16 µM, first compound 10 µM
# [31] = second compound 10 µM, first compound 0.0316 µM
# [32] = second compound 10 µM, first compound 0.1 µM
# [33] = second compound 10 µM, first compound 0.316 µM
# [34] = second compound 10 µM, first compound 1 µM
# [35] = second compound 10 µM, first compound 3.16 µM
# [36] = second compound 10 µM, first compound 10 µM
# 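Throughout, for viability, T/C: 100% = DMSO vehicle control viability.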
compound,measurement,setting,value
C=CCn1c(=O)c2cnc(Nc3ccc(N4CCN(C)CC4)cc3)nc2n1-c1cccc(C(C)(C)O)n1 + CN(C)c1ccc(Nc2c3ccc(NC(=O)CCN4CCCC4)cc3nc3cc(NC(=O)CCN4CCCC4)ccc23)cc1,IC50,second compound 0.0316 µM,> 10 µM
same,IC50,second compound 0.1 µM,> 10 µM
same,IC50,second compound 0.316 µM,> 10 µM
same,IC50,second compound 1 µM,> 10 µM
same,IC50,second compound 3.16 µM,> 10 µM
same,IC50,second compound 10 µM,> 10 µM
same,"viability, T/C",[1],95.3%
same,"viability, T/C",[2],120%
same,"viability, T/C",[3],117%
same,"viability, T/C",[4],83.3%
same,"viability, T/C",[5],75.2%
same,"viability, T/C",[6],120%
same,"viability, T/C",[7],150%
same,"viability, T/C",[8],86.8%
same,"viability, T/C",[9],92.5%
same,"viability, T/C",[10],64.6%
same,"viability, T/C",[11],88.4%
same,"viability, T/C",[12],67.6%
same,"viability, T/C",[13],112%
same,"viability, T/C",[14],89.7%
same,"viability, T/C",[15],88.9%
same,"viability, T/C",[16],63.8%
same,"viability, T/C",[17],85.1%
same,"viability, T/C",[18],104%
same,"viability, T/C",[19],72.3%
same,"viability, T/C",[20],74.7%
same,"viability, T/C",[21],61.4%
same,"viability, T/C",[22],65%
same,"viability, T/C",[23],80.4%
same,"viability, T/C",[24],80.2%
same,"viability, T/C",[25],77.7%
same,"viability, T/C",[26],62%
same,"viability, T/C",[27],66.7%
same,"viability, T/C",[28],67.6%
same,"viability, T/C",[29],62.1%
same,"viability, T/C",[30],91.1%
same,"viability, T/C",[31],78%
same,"viability, T/C",[32],63.8%
same,"viability, T/C",[33],57.7%
same,"viability, T/C",[34],62%
same,"viability, T/C",[35],89.3%
same,"viability, T/C",[36],137%
CC(=O)O[C@H]1C(=O)[C@@]2(C)[C@H]([C@H](OC(=O)c3ccccc3)[C@]3(O)C[C@H](OC(=O)[C@H](O)[C@@H](NC(=O)c4ccccc4)c4ccccc4)C(C)=C1C3(C)C)[C@]1(OC(C)=O)CO[C@@H]1C[C@@H]2O + CN(C)c1ccc(Nc2c3ccc(NC(=O)CCN4CCCC4)cc3nc3cc(NC(=O)CCN4CCCC4)ccc23)cc1,IC50,second compound 0.0316 µM,> 10 µM
same,IC50,second compound 0.1 µM,> 10 µM
same,IC50,second compound 0.316 µM,> 10 µM
same,IC50,second compound 1 µM,> 10 µM
same,IC50,second compound 3.16 µM,> 10 µM
same,IC50,second compound 10 µM,> 10 µM
same,"viability, T/C",[1],84.6%
same,"viability, T/C",[2],95.5%
same,"viability, T/C",[3],137%
same,"viability, T/C",[4],86.5%
same,"viability, T/C",[5],61.9%
same,"viability, T/C",[6],119%
same,"viability, T/C",[7],74.1%
same,"viability, T/C",[8],134%
same,"viability, T/C",[9],89.5%
same,"viability, T/C",[10],82%
same,"viability, T/C",[11],111%
same,"viability, T/C",[12],98.4%
same,"viability, T/C",[13],89.7%
same,"viability, T/C",[14],86.5%
same,"viability, T/C",[15],96.8%
same,"viability, T/C",[16],69.7%
same,"viability, T/C",[17],92%
same,"viability, T/C",[18],115%
same,"viability, T/C",[19],87.4%
same,"viability, T/C",[20],74.9%
same,"viability, T/C",[21],70.7%
same,"viability, T/C",[22],64.5%
same,"viability, T/C",[23],84.8%
same,"viability, T/C",[24],86.3%
same,"viability, T/C",[25],79.1%
same,"viability, T/C",[26],68.1%
same,"viability, T/C",[27],70.8%
same,"viability, T/C",[28],55.3%
same,"viability, T/C",[29],75.9%
same,"viability, T/C",[30],84.6%
same,"viability, T/C",[31],68.2%
same,"viability, T/C",[32],62.4%
same,"viability, T/C",[33],63.9%
same,"viability, T/C",[34],55.1%
same,"viability, T/C",[35],80.3%
same,"viability, T/C",[36],72.7%
